This is an account of results in US20120101078A1, “AMIDE DERIVATIVES AS NEUROPEPTIDE Y5 RECEPTOR LIGANDS” (H. Lundbrck A/S, priority 2009, published 2012).

Assay [1] concerns the target T1, NPY Y5 receptor (Homo sapiens, UniProt Q15761).
T1 sequence (Q15761 1-445): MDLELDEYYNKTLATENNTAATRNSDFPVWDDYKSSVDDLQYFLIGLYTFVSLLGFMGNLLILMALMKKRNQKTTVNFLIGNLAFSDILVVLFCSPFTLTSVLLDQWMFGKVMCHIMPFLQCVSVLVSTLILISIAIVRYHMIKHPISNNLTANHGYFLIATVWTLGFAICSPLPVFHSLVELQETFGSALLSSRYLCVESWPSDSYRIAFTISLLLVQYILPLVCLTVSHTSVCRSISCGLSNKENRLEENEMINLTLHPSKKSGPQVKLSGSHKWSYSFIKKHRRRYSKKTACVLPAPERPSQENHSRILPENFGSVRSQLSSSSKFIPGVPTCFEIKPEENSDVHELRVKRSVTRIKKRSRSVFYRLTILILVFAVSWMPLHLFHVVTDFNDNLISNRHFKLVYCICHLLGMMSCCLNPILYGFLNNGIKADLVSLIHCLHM
Put plainly: Radioligand (125I-PYY) binding to membrane suspensions, cloned human NPY Y5 receptor. More on the design: expressed in transfected cells; host or cells: LM(tk-) cells (typically). The settings on record: 125I-PYY competition, membranes of transfected LM(tk-) cells; read-out: Ki, binding affinity of selected compounds. The method, then:
(§1) The pharmacological properties of the compounds of the present invention were evaluated at the cloned human NPY Y5 receptor using the protocols disclosed in U.S. Pat. No. 6,124,331, the contents of which are hereby incorporated by reference. The procedures for cell culture, transient transfection and membrane harvest, which are well known in the art, are described therein
Briefly, membrane suspensions from transfected cells (typically expressed in LM(tk-) cells) and ^125I-PYY radioligand (PerkinElmer, Waltham, Mass.) were diluted in binding buffer supplemented with 0.1% bovine serum albumin to yield an optimal membrane protein concentration so that ^125I-PYY bound by membranes in the assay was less than 10% of ^125I-PYY delivered to the sample (100,000 dpm/sample=0.08 nM for competition binding assays). Test compounds were diluted to desired concentrations with supplemented binding buffer in the presence of 30% DMSO. The binding assay was performed in 96-well polypropylene microtiter plates by mixing 125I-PYY test compound (25 μL), and finally, membrane suspensions (200 μL). Final DMSO=3%. Samples were incubated in at room temperature for about 120 min. Incubations were terminated by filtration over Whatman GF/C filters (pre-coated with 1% polyethyleneimine and air-dried before use), followed by washing with ice-cold binding buffer. Filter-trapped membranes were impregnated with MeltiLex solid scintillant (Wallac, Turku, Finland) and counted for ^125I-PYY in a Wallac MicroBeta Trilux. Non-specific binding was defined by 1000 nM porcine NPY. Specific binding was typically 80%; most non-specific binding was associated with the filter. Binding data were analyzed using nonlinear regression and statistical techniques available in the GraphPAD Prism package (San Diego, Calif.).

Assay [2] concerns the target T1, NPY Y5 receptor. Put plainly: NPY Y5-dependent inhibition of forskolin-stimulated cAMP accumulation. The format is cell-based. Set-up: expressed in transfected cells. Conditions: stably transfected cells, NPY then forskolin 10 uM, cAMP by HTRF. The protocol:
as §1
Stably transfected cells were seeded into 96-well microtiter plates and cultured until confluent. To reduce the potential for receptor desensitization, the serum component of the media was reduced to 1.5% for 4 to 16 hours before the assay. Cells were washed in Hank's buffered saline, or HBS (150 mM NaCl, 20 mM HEPES, 1 mM CaCl2, 5 mM KCl, 1 mM MgCl2, and 10 mM glucose) supplemented with 0.1% bovine serum albumin plus 100 uM IBMX. […] The assay was then terminated and intracellular cAMP was quantified by with highthroughput time-resolved flourometry (HTRF kit from CisBio, Bedford, Mass.). The effect of the test compound on agonist (NPY) activity were analyzed using nonlinear regression and statistical techniques available in the GraphPAD Prism package (San Diego, Calif.). The compounds of Example 2a and 5b were determined to function as an antagonist at the NPY Y5 receptor.
For orientation: cAMP levels reflect the balance of adenylyl cyclase and phosphodiesterase activity.

A further assay concerns the target T2, Y5 receptor (Rattus norvegicus, UniProt Q63634).
T2 construct: host or cells: animals in vivo (i.c.v. injection of Y5 agonist)
T2 sequence (Q63634 1-445): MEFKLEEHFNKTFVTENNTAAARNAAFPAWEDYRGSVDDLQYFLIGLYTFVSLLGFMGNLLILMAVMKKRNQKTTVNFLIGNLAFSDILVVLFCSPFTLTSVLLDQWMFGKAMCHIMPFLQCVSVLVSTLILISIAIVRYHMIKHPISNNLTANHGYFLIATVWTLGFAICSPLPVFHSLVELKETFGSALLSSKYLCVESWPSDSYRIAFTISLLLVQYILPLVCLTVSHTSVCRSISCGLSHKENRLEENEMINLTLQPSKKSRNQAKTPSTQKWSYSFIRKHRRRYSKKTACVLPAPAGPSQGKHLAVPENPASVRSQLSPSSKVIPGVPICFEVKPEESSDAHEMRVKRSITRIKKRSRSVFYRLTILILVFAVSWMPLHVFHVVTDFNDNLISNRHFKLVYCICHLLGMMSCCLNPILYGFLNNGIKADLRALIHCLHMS
Conditions: increase elicited by i.c.v. injection of cPP(1-7), NPY(19-23),Ala31,Aib32, Gln34]; cited from earlier work.

A further assay concerns Sprague Dawley rats. Conditions: 3-30 mg/kg, p.o., acute or chronic treatment; cited from earlier work.
The next assay relates to Wistar rats. The settings on record: Wistar rats exposed to chronic mild stress, chronic dosing 3, 10 mg/kg/day, i.p.; cited from earlier work.
Assay [3] relates to Flinders Sensitive Line rats. Conditions: chronic dosing 10 mg/kg/day, i.p.; cited from earlier work.
Assay [4] concerns Flinders Sensitive Line rats. The settings on record: chronic dosing 10 mg/kg/day, i.p.; cited from earlier work. The source holds these as a separate data set.

Take `O=C1CCCN1[C@H]1CC[C@H](C(=O)Nc2ccc(-c3cc(F)cc(F)c3)cn2)CC1` [Example 1a, trans-4-(2-Oxo-pyrrolidin-1-yl)-cyclohexanecarboxylic acid [5-(3,5-difluoro-phenyl)-pyridin-2-yl]-amide]: the inhibition constant Ki (in general, the equilibrium dissociation constant of an inhibitor or competing ligand from its target) on NPY Y5 receptor [1] was 720 nM.
As to `O=C1OCCN1[C@H]1CC[C@@H](C(=O)Nc2ccc(-c3cc(F)cc(F)c3)cn2)CC1` [Example 2a, cis-4-(2-Oxo-oxazolidin-3-yl)-cyclohexanecarboxylic acid [5-(3,5-difluoro-phenyl)-pyridin-2-yl]-amide], the Ki on NPY Y5 receptor [1] worked out at 8 nM. Also, the “function at the NPY Y5 receptor (effect on NPY agonist activity)” value on NPY Y5 receptor [2] is on record as “antagonist”.
For the molecule `O=C1OCCCN1[C@H]1CC[C@@H](C(=O)Nc2ccc(-c3cc(F)cc(F)c3)cn2)CC1` [Example 3a, cis-4-(2-Oxo-perhydro-1,3-oxazin-3-yl)-cyclohexanecarboxylic acid [5-(3,5-difluoro-phenyl)-pyridin-2-yl]-amide], at NPY Y5 receptor [1], the inhibition constant Ki was 6 nM.
Take `O=C1NCCCN1[C@H]1CC[C@@H](C(=O)Nc2ccc(-c3cc(F)cc(F)c3)cn2)CC1` [Example 4a, cis-4-(2-Oxo-tetrahydro-pyrimidin-1-yl)-cyclohexanecarboxylic acid [5-(3,5-difluoro-phenyl)-pyridin-2-yl]-amide]: the Ki at NPY Y5 receptor [1] was 9 nM.
`CN1CCCN([C@H]2CC[C@@H](C(=O)Nc3ccc(-c4cc(F)cc(F)c4)cn3)CC2)C1=O` [Example 5a, cis-4-(3-Methyl-2-oxotetrahydro-pyrimidin-1-yl)-cyclohexanecarboxylic acid [5-(3,5-difluoro-phenyl)-pyridin-2-yl]-amide]: the Ki at NPY Y5 receptor [1] is 12 nM.
Regarding `CN1CCN([C@H]2CC[C@@H](C(=O)Nc3ccc(-c4cc(F)cc(F)c4)cn3)CC2)C1=O` [Example 5b, cis-4-(3-Methyl-2-oxo-imidazolidin-1-yl)-cyclohexanecarboxylic acid [5-(3,5-difluoro-phenyl)-pridin-2-yl]-amide], the inhibition constant Ki on NPY Y5 receptor [1] was determined as 3.8 nM. Also, the “function at the NPY Y5 receptor (effect on NPY agonist activity)” value at NPY Y5 receptor [2] is “antagonist”.
Turning to `O=C1COCCN1[C@H]1CC[C@@H](C(=O)Nc2ccc(-c3cc(F)cc(F)c3)cn2)CC1` [Example 6a, cis-4-(3-Oxo-morpholin-4-yl)-cyclohexanecarboxylic acid [5-(3,5-difluoro-phenyl)-pyridin-2-yl]-amide], the Ki on NPY Y5 receptor [1] was 8 nM.
Regarding `CS(=O)(=O)NCC1CCC(Nc2nc3c(s2)CCSc2ccccc2-3)CC1` (stereo not drawn) [Lu AA33810], at Y5 receptor, the “effect on increase in plasma ACTH” value is reported as “attenuated increases” and the “effect on increase in plasma cortisol” value was “attenuated increases”. Further, the “effect in social interaction test” value in the assay on Sprague Dawley rats is reported as “anxiolytic-like effects”. Besides, in the assay with Wistar rats, the “effect on stress-induced decrease in sucrose consumption” value is on record as “antidepressant-like activity”. Besides, the “effect in social interaction test” value in assay [3] is given as “anxiolytic-like effects”. In assay [4], the “effect in forced swim test” value is “antidepressant-like effects”.
